Assay results from patent US7615651B2, “Diaryl, dipyridinyl and aryl-pyridinyl derivatives and uses thereof” (Pfizer Inc., priority 2006, dated 2009).
Where two headings read alike, the source gives them in different places.

Experiments:
Type in all cases: biochemical
[1] = biological target: T1, opioid receptor kappa (Homo sapiens, UniProt P41145); assay: GTPγ[35S] binding assay, antagonism of dynorphin-A
T1 construct: expressed in transfected cells
Protocol: (§1) Membranes were prepared from cells as described (Bass et al, 1996). GTPγ[5S] binding assays were performed in a 96 well FlashPlate™ format in duplicate using […] GTPγ[^35S] and 5 μg membrane per well in assay buffer composed of 50 mM Tris HCl, pH 7.4, 5 mM MgCl2, 1 mM EDTA, 100 mM NaCl, 30 μM GDP, 0.1% bovine serum albumin and the following protease inhibitors: 100 μg/ml bacitracin, 100 μg/ml benzamidine, 5 μg/ml aprotinin, 5 μg/ml leupeptin. The assay mix was then incubated at 30° C. with increasing concentrations of antagonist (10^−10 M to 10^−5 M) for 10 minutes and challenged with the agonists BW-373U86 (1 nM), dynorphin-A (10 nM), […] (1 μM) for opioid receptors delta, kappa, and mu, respectively. The assays were performed at 30° C. for one hour. The FlashPlates were then centrifuged at 2000×g for 10 minutes. Stimulation of GTPγ[^35S] binding was then quantified using a Wallac Microbeta and Ki calculations were done using Prism™ by Graphpad.

[2] = biological target: T2, opioid receptor mu (Homo sapiens, UniProt P35372); assay: GTPγ[35S] binding assay, antagonism of endorphin
T2 construct: expressed in transfected cells
T2 sequence (P35372 whole entry): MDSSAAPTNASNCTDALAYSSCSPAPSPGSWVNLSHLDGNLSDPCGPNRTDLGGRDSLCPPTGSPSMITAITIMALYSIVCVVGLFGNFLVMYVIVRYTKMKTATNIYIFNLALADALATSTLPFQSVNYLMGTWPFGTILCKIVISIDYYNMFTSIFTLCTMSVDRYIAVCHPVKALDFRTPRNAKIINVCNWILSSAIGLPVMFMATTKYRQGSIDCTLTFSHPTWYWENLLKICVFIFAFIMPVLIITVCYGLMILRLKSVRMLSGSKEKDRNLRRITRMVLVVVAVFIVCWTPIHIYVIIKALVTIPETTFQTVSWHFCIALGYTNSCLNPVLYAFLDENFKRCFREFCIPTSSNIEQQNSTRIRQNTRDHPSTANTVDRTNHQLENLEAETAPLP
Protocol: as §1

[3] = biological target: T3, opioid receptor delta (Homo sapiens, UniProt P41143); assay: GTPγ[35S] binding assay, antagonism of BW-373U86; settings: read-out: Delta functional (GTPγ[35S] binding Ki)
T3 construct: expressed in transfected cells
T3 sequence (P41143 whole entry): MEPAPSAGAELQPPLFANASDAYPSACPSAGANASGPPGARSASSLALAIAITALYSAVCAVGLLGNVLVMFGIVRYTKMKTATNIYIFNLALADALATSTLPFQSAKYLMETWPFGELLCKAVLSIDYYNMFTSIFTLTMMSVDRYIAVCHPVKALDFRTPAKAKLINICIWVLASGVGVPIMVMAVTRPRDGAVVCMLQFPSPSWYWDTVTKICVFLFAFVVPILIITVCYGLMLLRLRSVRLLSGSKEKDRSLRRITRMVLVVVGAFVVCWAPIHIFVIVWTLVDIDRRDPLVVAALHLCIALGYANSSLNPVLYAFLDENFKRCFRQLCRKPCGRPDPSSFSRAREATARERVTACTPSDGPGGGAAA
Protocol: as §1

[4] = average Ki, antagonism of dynorphin-A (10 nM) stimulated GTPγ[35S] binding, kappa opioid receptor membranes, read-out: Kappa functional (GTPγ[35S] binding Ki)
[5] = average Ki, antagonism of endorphin (1 μM) stimulated GTPγ[35S] binding, mu opioid receptor membranes, read-out: Mu functional (GTPγ[35S] binding Ki)
[6] = average Ki, antagonism of BW-373U86 (1 nM) stimulated GTPγ[35S] binding, delta opioid receptor membranes
[7] = read-out: Kappa functional (GTPγ[35S] binding Ki)
[8] = read-out: Mu functional (GTPγ[35S] binding Ki)
[9] = read-out: Kappa functional Ki (GTPγ[35S] binding)
[10] = read-out: Mu functional Ki (GTPγ[35S] binding)
[11] = average Ki, antagonism of dynorphin-A (10 nM) at kappa opioid receptor membranes, read-out: Kappa functional Ki (GTPγ[35S] binding)
[12] = average Ki, antagonism of endorphin (1 μM) at mu opioid receptor membranes, read-out: Mu functional Ki (GTPγ[35S] binding)
[13] = average Ki, antagonism of dynorphin-A (10 nM) at kappa opioid receptor, read-out: Kappa functional Ki (GTPγ[35S] binding)
[14] = average Ki, antagonism of endorphin (1 μM) at mu opioid receptor, read-out: Mu functional Ki (GTPγ[35S] binding)

T1 sequence (P41145 whole entry): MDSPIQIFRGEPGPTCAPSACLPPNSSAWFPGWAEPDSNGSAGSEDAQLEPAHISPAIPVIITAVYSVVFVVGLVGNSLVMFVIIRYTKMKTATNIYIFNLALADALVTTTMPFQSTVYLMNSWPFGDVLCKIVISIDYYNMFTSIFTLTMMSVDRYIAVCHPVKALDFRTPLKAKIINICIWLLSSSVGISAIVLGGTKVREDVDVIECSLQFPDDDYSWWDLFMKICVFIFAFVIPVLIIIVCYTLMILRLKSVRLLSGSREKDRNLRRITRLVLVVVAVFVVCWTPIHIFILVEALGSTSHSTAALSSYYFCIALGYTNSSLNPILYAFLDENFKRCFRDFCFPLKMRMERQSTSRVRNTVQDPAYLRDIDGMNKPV

Compound	Ki [1, 4] [nM]	Ki [2, 5] [nM]	Ki [3, 6] [nM]	Ki [3] [nM]	Ki [1, 7] [nM]	Ki [2, 8] [nM]	other results
Cc1cc(CNCCC(C)C)ccc1-c1cccc(C(N)=O)c1 [1A-01]	11.5	1.49	–	–	–	–	–
Cc1cc(CNCCC(C)C)cc(C)c1-c1cccc(C(N)=O)c1 [1A-02]	6.72	1.25	2.59	–	–	–	–
CC(C)CCNCc1cc(Cl)c(-c2cccc(C(N)=O)c2)c(Cl)c1 [1A-03]	3.76	1.2	4.87	–	–	–	–
CC(C)CCNCc1ccc(-c2cccc(C(N)=O)c2)c(C#N)c1 [1A-04]	28.8	4.64	13.8	–	–	–	–
COc1cc(-c2cccc(C(N)=O)c2)ccc1CNCCC(C)C [1A-05]	16.6	14	10.7	–	–	–	–
CC(C)CCNCc1ccc(-c2cccc(C(N)=O)c2)cc1O [1A-06]	101	52.3	0.0351	–	–	–	–
CC(C)CCNCc1cc(F)c(-c2cccc(C(N)=O)c2)cc1F [1A-08]	87.3	70.9	3160	–	–	–	–
CC(C)CCNCc1cc(F)c(-c2cc(C(N)=O)ccc2F)cc1F [1A-09]	51.1	64.8	16.7	–	–	–	–
NC(=O)c1cccc(-c2cc(F)c(CNC3Cc4ccccc4C3)c(F)c2)c1 [1A-10]	–	–	–	5.5	14.4	0.966	–
NC(=O)c1ccc(F)c(-c2cc(F)c(CNC3Cc4ccccc4C3)c(F)c2)c1 [1A-11]	–	–	–	6.62	12.4	0.843	–
CC(C)CCNCc1ccc(-c2cc(C(N)=O)ccc2F)cc1F [1A-12]	34.9	41.1	17.2	–	–	–	–
CC(C)CCNCc1ccc(-c2cccc(C(N)=O)c2)cc1Cl [1A-13]	23.4	25	33.6	–	–	–	–
Cc1cc(CNCCC(C)C)ccc1-c1ccc(C(N)=O)cc1 [1B-01]	24.8	17.8	13.6	–	–	–	–
Cc1cc(C(N)=O)ccc1-c1c(F)cc(CNC2Cc3ccccc3C2)cc1F [1B-04]	–	–	–	5.28	20.1	2.66	–
CC(C)CCNCc1c(F)cc(-c2ccc(C(N)=O)cc2)cc1F [1B-05]	162	107	3000	–	–	–	–
Cc1cc(C(N)=O)ccc1-c1cc(F)c(CNC2Cc3ccccc3C2)c(F)c1 [1B-07]	–	–	–	0.0993	0.241	0.0494	–
Cc1cc(C(N)=O)ccc1-c1ccc(CNCCC(C)C)c(F)c1 [1B-08]	1.89	3.24	1.97	–	–	–	–
COCCNCc1c(F)cc(-c2ccc(C(N)=O)cc2C)cc1F [1B-09]	17.9	70.5	11	–	–	–	–
Cc1cc(C(N)=O)ccc1-c1ccc(CNC2Cc3ccccc3C2)c(F)c1 [1B-10]	–	–	–	0.0326	0.256	0.0717	–
CC(C)CCNCc1ccc(-c2cccc(C(N)=O)c2)cn1 [1C-01]	114	154	22	–	–	–	–

Compound	Ki [1, 4] [nM]	Ki [2, 5] [nM]	Ki [3, 6] [nM]	Ki [3] [nM]	Ki [1, 7] [nM]	Ki [2, 8] [nM]	other results
Cc1cc(C(N)=O)ccc1-c1ccc(CNCCC(C)C)nc1 [1D-01]	17.1	20.5	11.7	–	–	–	–
Cc1cc(C(N)=O)ccc1-c1ccc(CNCCC(C)C)cn1 [1D-02]	14.7	43.1	4.33	–	–	–	–
Cc1cc(C(N)=O)ccc1-c1ccc(CNC2Cc3ccccc3C2)cn1 [1D-03]	–	–	–	1.24	2.93	0.541	–
Cc1cc(C(N)=O)ccc1-c1ccc(CNC2Cc3ccccc3C2)nc1 [1D-04]	–	–	–	0.868	1.88	0.715	–
NC(=O)c1ccc(-c2ccc(CNC3Cc4ccccc4C3)nc2)c(Cl)c1 [1D-05]	–	–	–	4.85	4.96	1.85	–
NC(=O)c1ccc(-c2ccc(CNC3Cc4ccccc4C3)cn2)c(Cl)c1 [1D-06]	–	–	–	3.45	4.13	1.1	–
Cc1cc(CNCCC(C)C)ccc1-c1ncc(C(N)=O)cc1C [1D-07]	8.99	1.43	9.3	–	–	–	–
CC(C)CCNCc1ccc(-c2cccc(C(N)=O)c2)cc1 [4A-01]	26.9	32.8	15.7	–	–	–	–
CC(C)CCNCc1ccc(-c2ccc(F)c(C(N)=O)c2)cc1 [4A-02]	724	44800	1.55	–	–	–	–
NC(=O)c1cc(-c2ccc(CNC3Cc4ccccc4C3)cc2)ccc1F [4A-03]	–	–	–	51.9	60.2	25.2	–
CC(C)CCNCc1ccc(-c2cc(F)cc(C(N)=O)c2)cc1 [4A-04]	60.1	92.1	21.4	–	–	–	–
CC(C)CCNCc1ccc(-c2cccc(C(N)=O)c2)c(Cl)c1 [4A-05]	9.84	0.95	–	–	–	–	–
NC(=O)c1cccc(-c2ccc(CNCC3CCCOC3)cc2Cl)c1 (stereo not drawn) [4A-06]	–	–	–	23.6	14.7	12.5	–
NC(=O)c1cccc(-c2ccc(CNC[C@@H]3CCCO3)cc2Cl)c1 [4A-07]	–	–	–	24.3	14.7	9.03	–
NC(=O)c1cccc(-c2ccc(CNCCC3CCOCC3)cc2Cl)c1 [4A-08]	–	–	–	2.79	12.9	3.44	–
CC1(C)OCC(CNCc2ccc(-c3cccc(C(N)=O)c3)c(Cl)c2)O1 (stereo not drawn) [4A-10]	31.3	8.49	353	–	–	–	–
NC(=O)c1cccc(-c2ccc(CNC3CCc4ccccc43)cc2Cl)c1 (stereo not drawn) [4A-11]	–	–	–	21.3	7.69	6.27	–
NC(=O)c1cccc(-c2ccc(CNCC3CCCCO3)cc2Cl)c1 (stereo not drawn) [4A-12]	–	–	–	22.7	18.2	15	–
NC(=O)c1cccc(-c2ccc(CNCCC3CCCCO3)cc2Cl)c1 (stereo not drawn) [4A-13]	–	–	–	3.27	11	1.16	–
CC(C)CCNCc1ccc(-c2ccc(C(N)=O)cc2)cc1 [4B-01]	–	–	–	14	88.6	175	–

Compound	Ki [1, 4] [nM]	Ki [2, 5] [nM]	Ki [3, 6] [nM]	Ki [3] [nM]	Ki [1, 7] [nM]	Ki [2, 8] [nM]	other results
CC(C)CCNCc1ccc(-c2ccc(C(N)=O)cc2C(F)(F)F)cc1 [4B-02]	–	–	–	15.4	29.7	57.2	–
Cc1cc(C(N)=O)ccc1-c1ccc(CNCc2ccccc2)cc1 [4B-03]	–	–	–	4	1.84	3.13	–
Cc1cc(C(N)=O)ccc1-c1ccc(CNCCC2CCOCC2)cc1 [4B-05]	–	–	–	0.893	3.39	4.07	–
Cc1cc(C(N)=O)ccc1-c1ccc(CNCCOC(C)C)cc1 [4B-06]	–	–	–	6.42	8.53	10.3	–
Cc1cc(C(N)=O)ccc1-c1ccc(CNCCc2ccccc2)cc1 [4B-09]	–	–	–	1.82	6.19	2.73	–
Cc1cc(C(N)=O)ccc1-c1ccc(CNCc2cccc(Cl)c2)cc1 [4B-10]	–	–	–	0.602	1.58	0.94	–
Cc1cc(C(N)=O)ccc1-c1ccc(CNCCC2CC2)cc1 [4B-11]	–	–	–	7.05	5.7	8.38	–
CC(C)CCNCc1ccc(-c2c(F)cc(C(N)=O)cc2F)cc1 [4B-12]	–	–	–	16.9	26.8	48.4	–
Cc1cc(C(N)=O)ccc1-c1ccc(CN2Cc3ccccc3C2)cc1 [4B-13]	–	–	–	159	33	207	–
Cc1cc(C(N)=O)cc(C)c1-c1ccc(CNCCC(C)C)cc1 [4B-14]	–	–	–	6.27	29.6	86.5	–
CC(C)CCNCc1ccc(-c2ccc(C(N)=O)c(F)c2)cc1 [4B-15]	–	–	–	355	278	295	–
COc1cc(C(N)=O)ccc1-c1ccc(CNCCC(C)C)cc1 [4B-46]	–	–	–	–	–	–	Ki [1, 9]: 14.7 nM; Ki [2, 10]: 121 nM
CC(C)CCNCc1ccc(-c2cccc(-c3ncn[nH]3)c2)c(Cl)c1 [7A-04]	–	–	–	–	–	–	Ki [1, 11]: 0.794 nM; Ki [2, 12]: 0.162 nM
Cc1cc(CNCCC(C)C)ccc1-c1cccc(-c2ncn[nH]2)c1 [7A-05]	–	–	–	–	–	–	Ki [1, 11]: 2.12 nM; Ki [2, 12]: 0.505 nM
CC(C)CCNCc1cc(F)c(-c2cccc(-c3ncn[nH]3)c2)c(F)c1 [7A-06]	–	–	–	–	–	–	Ki [1, 11]: 4.61 nM; Ki [2, 12]: 2.06 nM
CC(C)CCNCc1ccc(-c2cccc(NS(C)(=O)=O)c2)cc1 [8A-01]	–	–	–	–	–	–	Ki [1, 13]: 45.9 nM; Ki [2, 14]: 14.6 nM
Cc1cc(NS(C)(=O)=O)ccc1-c1ccc(CNCCC(C)C)cc1 [8B-01]	–	–	–	–	–	–	Ki [1, 13]: 1450 nM; Ki [2, 14]: 715 nM
CC(C)CC[NH2+]Cc1ccc(-c2cccc(C(N)=O)c2)c(F)c1 [E5-01, (3′-Carbamoyl-2-fluoro-biphenyl-4-ylmethyl)-(3-methyl-butyl)-ammonium chloride]	–	–	–	–	–	–	Ki [1, 9]: 23 nM; Ki [2, 10]: 14 nM
